Experimental data as given in US20030212034A1, “Method of treatment of obesity and paralyzed muscle and ergogenic aids” (priority 2002, published 2003).

What was measured:
Format in all cases: in vivo, rat
[1] = system: AMP-activated protein kinase (AMPK); assay: AMPK activity in ammonium sulfate precipitates of muscle homogenates after s.c. AICAR injection
Procedure: (§1) Three days prior to the experiment, jugular cathethers were installed and exteriorized on the back of the neck to allow rapid anesthesia of the rat and rapid blood and tissue collection. Rats were then injected with AICAR (1 mg/g body wt) subcutaneously in sterile 0.9% NaCl or were given 0.9% NaCl (n=6 rats per group). One hour after the subcutaneous injection, rats were anesthetized by intravenous injection of pentobarbital sodium (4.8 mg/100 g body wt). The superficial white and the deep red regions of the quadriceps muscles, and the soleus muscles were quickly removed and frozen with stainless steel clamps at liquid nitrogen temperature.
(§2) Resuspended ammonium sulfate precipitates of tissue homogenates were analyzed for AMPK activity and acetyl-CoA carboxylase activity as described previously. Li, B., et al. J. Biol. Chem. 274:17534-17540, 1999; Winder, W. W., & D. G. Hardie Am. J. Physiol. 270:E299-E304, 1996. […] ACC activity at 0.2 mM citrate provides some indication of the in vivo activity of AMPK, since ACC is a target for phosphorylation of AMPK. ACC activity has previously been reported to decrease in response to phosphorylation by AMPK. Winder, W. W., & D. G. Hardie Am. J. Physiol. 270:E299-E304, 1996. The acute experiment was also repeated on rats treated with AICAR or saline for 4 weeks to see if the responses of AMPK and ACC to AICAR persisted for the entire treatment period. In both experiments ATP and CP were measured on neutralized perchloric acid extracts of muscle.

[2] = ZMP concentration in muscle after AICAR injection; settings: for ZMP concentration: one hour after AICAR injection in rats given daily injections for 4 weeks
Procedure: as §2
After obtaining results on blunted acute response to an AICAR injection on AMPK in chronically treated rats, an additional experiment was done to determine if intermittent treatment of rats with AICAR would influence the extent of the increase in citrate synthase. This experiment was also of shorter duration to minimize down regulation that appeared to occur with prolonged treatment. Rats were injected for three days (1 mg/g) followed by two days of no treatment. They were then injected for five days, followed by another two days with no treatment and then for three additional days before killing 20-24 hours following the last injection. Rats were anesthetized and tissues were collected and frozen as before. Analytical methods. Muscles from rats killed 1 h after injection of AICAR or saline were analyzed for AMPK, acetyl-CoA carboxylase (ACC) at 0.2 mM citrate, ATP and CP and ZMP. Li, B., et al. J. Biol. Chem. 274:17534-17540, 1999; Winder, W. W., & D. G. Hardie Am. J. Physiol. 270:E299-E304, 1996; Heinz, F., & H. Weisser. Creatine phosphate. In: Methods of Enzymatic Analysis, edited by H. U. Bergmeyer. New York: Academic, 1983, p. 507-514.

[3] = system: carnitine palmitoyl-transferase; assay: Muscle carnitine palmitoyl-transferase activity after chronic AICAR injection; settings: chronic AICAR 1 mg/g daily 4 wk
Procedure: (§3) To determine the effect of chronic injection of AICAR on muscle enyzme activities or expression and on muscle GLUT4, rats were injected subcutaneously (between 8 and 10 a.m.) with AICAR (1 mg/g) or saline vehicle daily for 28±1 days in succession. Beginning with the first injection, controls were pair fed with AICAR-injected rats. Rats were anesthetized by intraperitoneal injection of pentobarbital sodium 22-25 hours after the last AICAR injection and the white and red regions of the quadriceps and the soleus muscles were removed and frozen as described above. Muscles were kept frozen at −70° C. until analyzed. Liver, heart, kidney, and fat pads were weighed.
(§4) For enzyme activity measurements, 10% homogenates were made from the respective muscles in 175 mM KCl, 10 mM GSH, 2 mM EDTA, pH 7.4. This homogenate was frozen and thawed 3 times and mixed thoroughly prior to enzymatic measurements. For succinate dehydrogenase and lactate dehydrogenase, an aliquot of the homogenate was centrifuged at 700×g for 10 min at 4° C. The remainder of the assays were performed on aliquots and dilutions of the mixed whole homogenate. Assays were performed by the following methods: citrate synthase, succinate dehydrogenase, the mitochondrial fraction of malate dehydrogenase, hexokinase, lactate dehydrogenase, carnitine palmitoyl transferase and hydroxyacyl-CoA dehydrogenase. Srere, P. A. Methods in Enzymology 13:3-6, 1969; King, T. E. Methods Enzymol 10:322-335, 1967; Shonk, C. E. & G. E. Boxer, Cancer Res. 24:709-721, 1964; Uyeda, K., & E. Racker, J. Biol Chem 240:4682-4688, 1965; Pesce, A., et al. J. Biol. Chem. 239:1753-1761, 1964; Baldwin, K. M., et al. Am. J. Physiol 222:373-378, 1972; Mole, P. A., et al. J. Clin. Invest. 50:2323-2330, 1971; Kobayashi, A. et al. J. Biochem. 119:775-782, 1996.

[4] = system: acetyl-CoA carboxylase (ACC); assay: Acetyl-CoA carboxylase activity at 0.2 mM citrate in muscle after s.c. AICAR injection; settings: for ACC: at 0.2 mM citrate
Procedure: as §1, §2

malate dehydrogenase = assay: Muscle malate dehydrogenase activity after chronic AICAR injection; settings: AICAR 1 mg/g daily 4 wk, FIG. 4
Procedure: as §3, §4

lactate dehydrogenase = assay: Muscle lactate dehydrogenase activity after chronic AICAR injection; settings: chronic AICAR 1 mg/g daily 4 wk
Procedure: as §3, §4

[5] = red quadriceps, 60 min after AICAR injection, after daily injections for 4 wk
[6] = red quadriceps, 60 min after single AICAR injection 1 mg/g s.c., no chronic treatment
[7] = soleus, 60 min after AICAR injection, after daily injections for 4 wk
[8] = soleus, 60 min after single AICAR injection 1 mg/g s.c., no chronic treatment
[9] = white quadriceps, 60 min after AICAR injection, after daily injections for 4 wk
[10] = white quadriceps, 60 min after single AICAR injection 1 mg/g s.c., no chronic treatment
[11] = AICAR-injected rats, single injection, 0.2 mM citrate

NC(=O)c1ncn([C@@H]2O[C@H](CO)[C@@H](O)[C@H]2O)c1N [AICAR, 5-aminoimidazole-4-carboxamide-1-β-D-ribofuranoside]
AMPK [1, 5]: 200 ± 17 pmol/g/min | AMPK [1, 6]: 405 ± 62 pmol/g/min | AMPK [1, 7]: 191 ± 22 pmol/g/min | AMPK [1, 8]: 447 ± 42 pmol/g/min | AMPK [1, 9]: 258 ± 32 pmol/g/min | AMPK [1, 10]: 1,102 ± 80 pmol/g/min | time course of ZMP in muscle after subcutaneous injection of AICAR ([2]; increased 15 minutes following injection): remains elevated for at least two hours | ZMP concentration ([2]; red quadriceps): 0.94 ± 0.08 µmol/g | ZMP concentration ([2]; soleus muscle): 1.15 ± 0.07 µmol/g | ZMP concentration ([2]; white quadriceps): 0.42 ± 0.04 µmol/g | CPT activity ([3]; red quadriceps): 0.46 ± 0.02 µmol/g/min | CPT activity ([3]; soleus): 0.62 ± 0.02 µmol/g/min | CPT activity ([3]; white quadriceps): 0.16 ± 0.01 µmol/g/min | ACC activity in white quadriceps relative to that seen in red quadriceps [4, 11]: 61% | ACC activity in white quadriceps relative to that seen in soleus [4, 11]: 44% | ACC [4, 5]: 0.21 ± 0.01 nmol/g/min | ACC [4, 6]: 0.19 ± 0.02 nmol/g/min | ACC [4, 7]: 0.28 ± 0.01 nmol/g/min | ACC [4, 8]: 0.19 ± 0.02 nmol/g/min | ACC [4, 9]: 0.12 ± 0.01 nmol/g/min | ACC [4, 10]: 0.08 ± 0.02 nmol/g/min | malate dehydrogenase activity vs controls (malate dehydrogenase; red quadriceps): not in red quadriceps | malate dehydrogenase activity vs controls (malate dehydrogenase; soleus): all increased | malate dehydrogenase activity vs controls (malate dehydrogenase; white quadriceps): all increased | LDH activity (lactate dehydrogenase; red quadriceps): 557 ± 26 µmol/g/min | LDH activity (lactate dehydrogenase; soleus): 162 ± 7 µmol/g/min | LDH activity (lactate dehydrogenase; white quadriceps): 685 ± 20 µmol/g/min
